Measurements published in ChEMBL document CHEMBL5584208, “Conformationally constrained potent inhibitors for enhancer of zeste homolog 2 (EZH2)” (Bioorg Med Chem Lett, 2024).

Assays:
[1] = Cmax in mouse at 10 mg/kg, po; assay type: ADME, organism-based; settings: in vivo
[2] = Clearance in mouse at 2 mg/kg, iv; assay type: ADME, organism-based; settings: in vivo
[3] = Oral bioavailability in mouse at 10 mg/kg; assay type: ADME, organism-based; settings: in vivo
[4] = AUC (0 to t) in mouse at 2 mg/kg, iv; assay type: ADME, organism-based; settings: in vivo
Pfeiffer [5] = assay: Antiproliferative activity against human Pfeiffer cells harboring EZH2 A677G mutant; assay type: functional, cell-based
[6] = Cmax in mouse at 2 mg/kg, iv; assay type: ADME, organism-based; settings: in vivo
[7] = AUC (0 to infinity) in mouse at 2 mg/kg, iv; assay type: ADME, organism-based; settings: in vivo
[8] = Volume of distribution at steady state in mouse at 2 mg/kg, iv; assay type: ADME, organism-based; settings: in vivo, read-out: Vdss
WSUDLCL2 = assay: Antiproliferative activity against human WSUDLCL2 cells harboring EZH2 Y641F mutant; assay type: functional, cell-based
[9] = AUC (0 to infinity) in mouse at 10 mg/kg, po; assay type: ADME, organism-based; settings: in vivo
[10] = AUC (0 to t) in mouse at 10 mg/kg, po; assay type: ADME, organism-based; settings: in vivo
[11] = Half life in mouse at 2 mg/kg, iv; assay type: ADME, organism-based; settings: in vivo
KARPAS-422 [12] = assay: Antiproliferative activity against human KARPAS-422 cells harboring EZH2 Y641N mutant; assay type: functional, cell-based
[13] = Half life in mouse at 10 mg/kg, po; assay type: ADME, organism-based; settings: in vivo
[14] = Metabolic stability in mouse liver microsomes assessed as intrinsic clearance in hepatocytes measured per million cells; assay type: ADME, Microsome
[15] = Metabolic stability in monkey liver microsomes assessed as intrinsic clearance in liver; assay type: ADME, Macaca mulatta, Microsome; settings: rhesus monkey, read-out: CLH
[16] = Toxicity in mouse xenografted with human Pfeiffer cells harboring EZH2 A677G mutant assessed as body weight loss at 100 mg/kg, po qd for 28 days; assay type: organism-based; settings: in vivo, 672 h, time 28 day
[17] = Drug concentration in human KARPAS-422 cells harboring EZH2 Y641N mutant xenografted in mouse at 100 mg/kg, po measured after 8 hrs; assay type: ADME, organism-based; settings: KARPAS-422 xenograft tumour, read-out: Ct
[18] = Metabolic stability in human liver microsomes assessed as intrinsic clearance in liver; assay type: ADME, Microsome; settings: read-out: CLH
[19] = Metabolic stability in rat liver microsomes assessed as intrinsic clearance in hepatocytes measured per million cells; assay type: ADME, Microsome
[20] = Metabolic stability in dog liver microsomes assessed as intrinsic clearance in hepatocytes measured per million cells; assay type: ADME, Canis lupus familiaris, Microsome
[21] = Metabolic stability in dog liver microsomes assessed as half life; assay type: ADME, Canis lupus familiaris, Microsome
[22] = Metabolic stability in rat liver microsomes assessed as intrinsic clearance in liver; assay type: ADME, Microsome; settings: read-out: CLH
KARPAS-422 [23] = assay: Antitumor activity against human KARPAS-422 cells harboring EZH2 Y641N mutant xenografted in mouse at 100 mg/kg, po bid for 28 days relative to control; assay type: functional; settings: KARPAS-422, 672 h, time 28 day, read-out: TGI
[24] = Metabolic stability in human liver microsomes assessed as half life; assay type: ADME, Microsome
Pfeiffer [25] = assay: Antitumor activity against human Pfeiffer cells harboring EZH2 A677G mutant xenografted in mouse at 100 mg/kg, po qd for 28 days relative to control; assay type: functional; settings: 672 h, time 28 day, read-out: TGI
[26] = Drug concentration in human KARPAS-422 cells harboring EZH2 Y641N mutant xenografted in mouse at 100 mg/kg, po measured after 4 hrs; assay type: ADME, organism-based; settings: KARPAS-422 xenograft tumour, read-out: Ct
[27] = Metabolic stability in mouse liver microsomes assessed as intrinsic clearance in liver; assay type: ADME, Microsome; settings: read-out: CLH
[28] = Metabolic stability in dog liver microsomes assessed as intrinsic clearance in liver; assay type: ADME, Canis lupus familiaris, Microsome; settings: read-out: CLH
[29] = Metabolic stability in human liver microsomes assessed as intrinsic clearance in hepatocytes measured per million cells; assay type: ADME, Microsome
[30] = Metabolic stability in rat liver microsomes assessed as half life; assay type: ADME, Microsome
[31] = Toxicity in mouse xenografted with human KARPAS-422 cells harboring EZH2 Y641N mutant assessed as body weight loss at 100 mg/kg, po bid for 28 days; assay type: organism-based; settings: in vivo, 672 h, time 28 day
[32] = Metabolic stability in monkey liver microsomes assessed as intrinsic clearance in hepatocytes measured per million cells; assay type: ADME, Macaca mulatta, Microsome; settings: rhesus monkey
[33] = Metabolic stability in mouse liver microsomes assessed as half life; assay type: ADME, Microsome
[34] = Metabolic stability in monkey liver microsomes assessed as half life; assay type: ADME, Macaca mulatta, Microsome; settings: rhesus monkey

Compound: CCN(c1cc(-c2ccc3c(c2)NC(=O)C32CCN(C)CC2)cc(C(=O)NCc2c(C)cc(C)[nH]c2=O)c1C)C1CCOCC1
- Cmax [1]: 13.5 ng/mL
- clearance [2]: 27.9 mL/min/kg
- bioavailability [3]: 0.06%
- AUC(0-t) [4]: 1230 ng·h/mL
- IC50 (Pfeiffer [5]): 1.98 nM
- Cmax [6]: 3680 ng/mL
- AUC(0-inf) [7]: 1230 ng·h/mL
- Vd [8]: 0.688 L/kg
- IC50 (WSUDLCL2): 3.58 nM
- AUC(0-inf) [9]: 3.4 ng·h/mL
- AUC(0-t) [10]: 3.4 ng·h/mL
- half-life [11]: 37.2 min
- IC50 (KARPAS-422 [12]): 2.19 nM

Compound: CCN(c1cc(-c2ccc3c(c2)NC(=O)C32CCOCC2)cc(C(=O)NCc2c(C)cc(C)[nH]c2=O)c1C)C1CCOCC1
- Cmax [1]: 152 ng/mL
- clearance [2]: 99.7 mL/min/kg
- bioavailability [3]: 7.4%
- AUC(0-t) [4]: 331 ng·h/mL
- IC50 (Pfeiffer [5]): 0.56 nM
- Cmax [6]: 912 ng/mL
- AUC(0-inf) [7]: 340 ng·h/mL
- Vd [8]: 2.61 L/kg
- IC50 (WSUDLCL2): 1.34 nM
- AUC(0-inf) [9]: 125 ng·h/mL
- AUC(0-t) [10]: 122 ng·h/mL
- half-life [13]: 37.2 min
- half-life [11]: 25.2 min
- IC50 (KARPAS-422 [12]): 0.98 nM

Compound: CCN(c1cc(-c2ccc(CN3CCOCC3)cc2)cc(C(=O)NCc2c(C)cc(C)[nH]c2=O)c1C)C1CCOCC1 [TAZEMETOSTAT]
- CLH [14]: 144.6 µL/min
- CLint scaled [15]: 237 mL/min/kg
- Activity [16]: Non-Toxic
- concentration at 8 h [17]: 416 ng/mL
- Cmax [1]: 1950 ng/mL
- clearance [2]: 12.4 mL/min/kg
- CLint scaled [18]: 65.7 mL/min/kg
- bioavailability [3]: 32%
- CLH [19]: 74.1 µL/min
- AUC(0-t) [4]: 2710 ng·h/mL
- CLH [20]: 66.5 µL/min
- half-life [21]: 20.8 min
- CLint scaled [22]: 347 mL/min/kg
- inhibition in vivo at 100 mg/kg (KARPAS-422 [23]): 20.2%
- IC50 (Pfeiffer [5]): 2.26 nM
- Cmax [6]: 2010 ng/mL
- half-life [24]: 58.7 min
- AUC(0-inf) [7]: 2720 ng·h/mL
- inhibition in vivo at 100 mg/kg (Pfeiffer [25]): 71.9%
- concentration at 4 h [26]: 2340 ng/mL
- Vd [8]: 0.623 L/kg
- CLint scaled [27]: 1720 mL/min/kg
- CLint scaled [28]: 458 mL/min/kg
- CLH [29]: 23.6 µL/min
- half-life [30]: 18.7 min
- IC50 (WSUDLCL2): 6.44 nM
- AUC(0-inf) [9]: 4370 ng·h/mL
- Activity [31]: Non-Toxic
- CLH [32]: 65.9 µL/min
- AUC(0-t) [10]: 4340 ng·h/mL
- half-life [33]: 9.6 min
- half-life [13]: 52.8 min
- half-life [11]: 35.4 min
- IC50 (KARPAS-422 [12]): 3.86 nM
- half-life [34]: 21 min
